# Tests used:
# MH-22A (mouse hepatoma) [1] = test: Cytotoxicity, crystal violet (CV) assay, MH-22A; type: cell-based; details: Mus musculus; Table 1; 72 h exposure; read-out: MH-22A IC50 (CV)
# Procedure: After incubation, the staining solution was removed. The cells were washed 4 times with water.
# [2] = previous results; cited from earlier work
# [3] = system: NIH3T3 (mouse embryonic fibroblast); test: Basal cytotoxicity test, Neutral Red Uptake (NRU) assay; details: Mus musculus, NIH3T3, 24 h, read-out: NIH3T3 IC50 (NR)
# Procedure: The NRU cytotoxicity assay procedure is based on the ability of viable cells to incorporate and bind neutral red, a supravital dye.
# Balb/c NIH 3T3 (mouse Swiss albino embryo fibroblast, ATCC® CRL-1658™) cells (9000 cells/well) were placed into 96-well plates for 24 h in Dulbecco's modified Eagle's medium (DMEM) containing 5% fetal bovine serum. Then, the cells were exposed to the test compound over a range of seven concentrations (1000, 316, 100, 31, 10, 3, and 1 μg/ml) for 24 h. Untreated cells were used as a control. After 24 h, the medium was removed from all plates. Then, 150 μl of neutral red solution was added (0.05 mg/ml NR in DMEM 24 h preincubated at 37°C and then filtered before use through a 0.22 μm syringe filter). Plates were incubated for 3 h, and then, the cells were washed three times with PBS. The dye within viable cells was released by extraction with a mixture of acetic acid, ethanol, and water (1 : 50 : 49). The absorbance of neutral red was measured using a spectrophotometer multiplate reader (Tecan Infinite M1000) at 540 nm. The optical density (OD) was calculated using the following formula: OD (treated cells) × 100/OD (control cells). The IC50 values were calculated using the GraphPad Prism® 3.0 program.
# [4] = system: HT-1080 (human lung fibrosarcoma); test: Cytotoxicity, MTT assay, HT-1080; type: cell-based; details: Homo sapiens, HT-1080; Table 1; 72 h exposure; read-out: HT-1080 IC50 (MTT)
# Excerpt: (§1) Reduction takes place only when mitochondrial reductase enzymes are active, and therefore, conversion is directly related to the number of viable cells which can be quantified by the absorbance of the solution (between λ = 500 and 600 nm) using a spectrophotometer.
# [5] = Electrochemical oxidation potentials, cyclic voltammetry; type: physicochemical; details: glassy carbon electrode, dry acetonitrile
# Procedure: A stationary glassy carbon disk electrode (d = 0.5 mm) served as the working electrode, while the counterelectrode was a Pt wire. The oxidation potentials were measured relative to a Ag/Ag^+ reference electrode. Acetonitrile was dried over P2O5 and distilled; the distillate was stored over CaH2 and redistilled just before use. Recrystallized tetrabutylammonium tetrafluoroborate (TBABF4) was used as a supporting electrolyte at 0.1 M concentration.
# The electrochemical oxidation of the selected compounds studied in this work was performed by cyclic voltammetry on a stationary glassy carbon electrode in dry acetonitrile; the data is presented in Table 4. The perchlorates of the tested amphiphiles were obtained from the corresponding bromides by treating their abs. MeOH solutions with excess of conc. HClO4 according to the procedure elaborated by Turovska et al..
# MH-22A (mouse hepatoma) [6] = test: Cytotoxicity, MTT assay, MH-22A; type: cell-based; details: Mus musculus; Table 1; 72 h exposure; read-out: MH-22A IC50 (MTT)
# Excerpt: as §1
# [7] = system: HT-1080 (human lung fibrosarcoma); test: Cytotoxicity, crystal violet (CV) assay, HT-1080; details: Homo sapiens, HT-1080, 72 h, read-out: HT-1080 IC50 (CV)
# Procedure: IC50 is the compound concentration (μg/ml) at which 50% of the cells die. […] CV staining can be used to quantify the total DNA of the remaining population and thus is used to determine the number of live cells based on the concentration of the dye which remains after staining.
# Tumor cell lines HT-1080 (human connective tissue fibrosarcoma, ATCC® CCL-121™) and MH-22A (mouse hepatocarcinoma, ECACC, cat. Nr. 96121721) were used.
# HT-1080 and MH-22A cells were seeded in 96-well plates in Dulbecco's modified Eagle's (DMEM) medium containing 10% fetal bovine serum and 4 mM L-glutamine, without antibiotics, and cultivated for 72 h by exposure to different concentrations of compounds. Cell viability was measured using 3-(4,5-dimethylthiazol-2-yl)-2,5-diphenyltetrazolinium bromide (MTT). In brief, after incubating with compounds, the culture medium was removed and fresh medium with 0.2 mg/ml MTT was added in each well of the plate. After incubation (3 h, 37°C, 5% CO2), the medium with MTT was removed, and 200 μl DMSO was added at once to each sample. The samples were tested at 540 nm on a Tecan Infinite M1000 multiplate reader. The IC50 was calculated using the program GraphPad Prism® 3.0.
# For the CV assay, cells were stained with 0.05% crystal violet (Sigma-Aldrich) in 30% methanol for 20 minutes at room temperature. After incubation, the staining solution was removed. The cells were washed 4 times with water. For dye solubilization, 200 μl of a solubilizing solution (0.1 M citrate buffer, pH 4.2 in 50% ethanol; 1 : 1 v/v) was added. The absorbance of the solution was measured using a Tecan Infinite M1000 multiplate spectrophotometer at a wavelength of 570 nm [21].
# NIH3T3 = test: in vitro; details: mouse
# [8] = untreated DPPH level designated 100%; cited from earlier work
Compound,IC50 (MH-22A (mouse hepatoma) [1]) [µg/mL],electrochemical oxidation potential [2] [V],IC50 [3] [µg/mL],IC50 [4] [µg/mL],"Oxidation potential E^ox ([5]; Table 4, vs Ag/Ag+, 0.1 M TBABF4, tested as perchlorates) [V]",electrooxidation potential ([5]; cyclic voltammetry),IC50 (MH-22A (mouse hepatoma) [6]) [µg/mL],IC50 [7] [µg/mL],"LD50 (calculated, NIH3T3) (NIH3T3) [mg/kg]","antiradical activity (ARA), DPPH free radical scavenging [8] [%]"
"CCOC(=O)C1=C(C[n+]2ccccc2)NC(C[n+]2ccccc2)=C(C(=O)OCC)C1c1ccccc1.[Br-].[Br-] [compound 1, 1,1'-((3,5-Bis(ethoxycarbonyl)-4-phenyl-1,4-dihydropyridine-2,6-diyl)bis(methylene))-bis(pyridin-1-ium) dibromide]",> 100,1.7,> 1000,> 100,1.57,1.57–1.58 V,> 100,> 100,> 2000,
"CCCCCCCCCCCCOC(=O)C1=C(C[n+]2ccc(N(C)C)cc2)NC(C[n+]2ccc(N(C)C)cc2)=C(C(=O)OCCCCCCCCCCCC)C1c1ccccc1.[Br-].[Br-] [compound 13, 1,1'-((3,5-Bis((dodecyloxy)carbonyl)-4-phenyl-1,4-dihydropyridine-2,6-diyl)bis(methylene))bis(4-(dimethylamino)pyridin-1-ium) dibromide]",6 ± 2,,119 ± 13,3 ± 0.6,,,10 ± 3,10 ± 1,,27

# Source: publication PMC7790557, “Pleiotropic Properties of Amphiphilic Dihydropyridines, Dihydropyridones, and Aminovinylcarbonyl Compounds” (Oxidative Medicine and Cellular Longevity, 2020)
